Values joined by “and” are separate entries in the source; they are usually repeats but may differ in a detail not shown here. Equal values may be shown once.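 48-hour exposure; five concentrations; linearly interpolated endpoints. GI50 marks 50% less growth. TGI denotes the concentration required for complete inhibition of growth.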
Columns and labels:
Test in all cases: NCI-60 cell line screen, 48 h
HCC-2998 colon = system: HCC-2998 colon
SNB-19 CNS = system: SNB-19 CNS
LOX IMVI melanoma = system: LOX IMVI melanoma
BT-549 breast = system: BT-549 breast
RPMI-8226 leukemia = system: RPMI-8226 leukemia
TK-10 renal = system: TK-10 renal
NCI-H460 lung = system: NCI-H460 lung
HCT-116 colon = system: HCT-116 colon
HOP-62 NSCLC = system: HOP-62 NSCLC
SF-539 CNS = system: SF-539 CNS

Structure (SMILES)	GI50 (HCC-2998 colon) [µM]	TGI (HCC-2998 colon) [µM]	GI50 (SNB-19 CNS) [µM]	TGI (SNB-19 CNS) [µM]	GI50 (LOX IMVI melanoma)	TGI (LOX IMVI melanoma) [µM]	GI50 (BT-549 breast) [µM]	TGI (BT-549 breast) [µM]	GI50 (RPMI-8226 leukemia) [µM]	TGI (RPMI-8226 leukemia) [µM]	GI50 (TK-10 renal) [µM]	TGI (TK-10 renal)	GI50 (NCI-H460 lung) [µM]	TGI (NCI-H460 lung) [µM]	GI50 (HCT-116 colon) [µM]	TGI (HCT-116 colon) [µM]	GI50 (HOP-62 NSCLC)	TGI (HOP-62 NSCLC) [µM]	GI50 (SF-539 CNS) [µM]	TGI (SF-539 CNS) [µM]
COc1ccc2c(c1)N(CCO)C1=C(C(=O)OC1)C2c1cccc(Br)c1 (stereo not drawn)	0.184	15.7	0.141	> 100	0.0814 µM	18.8	0.305	34	0.184	28.4	0.349	83.6 µM	0.0477	5.05	0.05	2.88	0.132 µM	> 76.3	0.0498	0.859
COC(=O)C12OCC34C(CC5C(C)=CC(=O)C(O)C5(C)C3C(O)C1O)OC(=O)C(OC(=O)CC(C)C)C24 (stereo not drawn)	< 0.0281	–	–	–	< 0.0336 µM and 0.05 µM	–	–	0.00549	< 0.0289	–	0.0166	0.16 µM and 0.477 µM	–	–	–	–	0.0439 µM and 0.05 µM	–	< 0.034	–
COc1ccc(C2SC(C)C(=O)N2NC(=O)C(O)c2ccccc2)cc1 (stereo not drawn)	> 100	> 100	> 100	> 100	> 100 µM	> 100	> 100	> 100	> 100	> 100	> 100	> 100 µM	> 100	> 100	> 100	> 100	> 100 µM	> 100	> 100	> 100
Clc1cccc(Cc2cn3cc(-c4ccccc4)nc3s2)c1	2.39	> 100	8.92	> 100	0.629 µM	> 100	28.8	> 100	7.4	> 100	22	> 100 µM	3.31	> 100	9.36	> 100	9.1 µM	40.5	8.31	> 100
CN(C)CCOc1cccc(NC2=C(Cl)C(=O)C(Nc3cccc(OCCN(C)C)c3)=C(Cl)C2=O)c1	1.44	3	1.72	3.31	0.191 µM	0.407	1.72	3.12	0.306	1.03	0.234	0.513 µM	1.57	3.27	0.18	0.385	2.1 µM	4.22	1.62	2.98
O=C(O)C#Cc1ccc([N+](=O)[O-])cc1	–	> 100	–	> 100	–	> 100	–	> 100	–	> 100	–	> 100 µM	–	> 100	–	> 100	–	> 100	–	> 100
O=C(Nc1cc(Cl)cc(Cl)c1)c1ccc(NC2=C(Cl)C(=O)N(Cc3ccccc3)C2=O)cc1	–	–	41.7	> 100	2.21 µM	5.86	4.59	19.3	1.74	4.2	19.5	51.5 µM	1.8	4.51	0.743	3.76	4.21 µM	17.8	3.5	13.7
CCCNNC(=O)c1ccc(CNC(=O)/C=C/c2ccccc2)cc1	0.186	0.653	0.314	> 100	0.139 µM	0.306	1.43	> 100	0.101	–	0.0343	0.577 µM	0.286	> 100	0.0547	0.527	0.11 µM	> 100	0.191	> 100
O=S(=O)(c1ccccc1)C1CN(Cc2ccccc2)CCN(Cc2ccccc2)C1	–	> 100	–	> 100	–	> 61.5	–	> 100	–	53.4	–	> 100 µM	–	> 100	–	> 100	–	> 100	–	> 100
Nc1nn(C(=O)Nc2ccc(Cc3ccccc3)cc2)c2ccccc12	4.27	35.9	22.8	> 100	0.477 µM	16.1	13.5	39.6	1.86	25.8	27.2	> 100 µM	0.409	13	7.03	> 100	13.7 µM	46.5	0.495	5.36
C(#Cc1ccccc1C#Cc1ccccn1)c1ccc(OCCCCCCOc2ccc(C#Cc3ccccc3C#Cc3ccccn3)cc2)cc1	6.83	13.3	4.39	11.4	0.229 µM	5.71	4.39	12.1	0.387	10.1	5.33	15.8 µM	1.62	6.65	6.83	15.9	6.51 µM	14.6	1.76	7.63
N=C(N)c1ccc(-c2ccc(-c3ccco3)o2)cc1F	1.94	3.8	2.48	13.4	1.6 µM	3.05	2.19	5.11	1.95	4.68	1.69	3.24 µM	1.98	4.17	1.69	3.49	2.96 µM	10.4	1.6	3.25
Cc1cc(Cl)ccc1Nc1nc(C(F)(F)F)ccc1C(=O)N/N=C/c1ccc(F)cc1	1.1	4.54	2.11	12	1.34 µM	10.6	1.06	3.51	1.79	7.37	1.7	7.6 µM	1.95	6.04	1.4	11.1	1.68 µM	6.65	1.96	5.67
COc1cc2c(/C=C3/C(=O)Nc4c3ccc3ccccc43)c(Cl)[nH]c2cc1C	< 0.005	< 0.005	0.0402	> 50	0.00548 µM	0.0304	0.0254	> 50	0.0144	–	30.5	> 50 µM	0.0244	> 21.8	0.0078	–	0.0144 µM	4.08	0.0106	0.119
CCN(CC)CCCC(C)Nc1ccnc2cc(Cl)c(SCc3ccccc3)cc12 (stereo not drawn)	0.511	1.88	1.78	4.41	0.199 µM	0.552	1.78	3.28	0.633	2.93	0.512	1.6 µM	1.77	4.54	0.516	1.73	1.37 µM	3.01	0.626	2.04
N=C1N=Nc2nc(C3(c4nc5n(c4O)C(=N)N=N5)Cc4ccccc4C3=O)c(O)n21 (stereo not drawn)	–	> 100	–	> 100	–	> 100	> 100	> 100	–	> 100	–	> 100 µM	–	> 100	–	> 100	–	> 100	–	> 100
O=C(Nc1cccc2ccccc12)c1cc2ccccc2cc1O	3.5	13.3	3.17	> 100	2.72 µM	12.2	3.6	16.4	1.41	9.22	2.8	6.72 µM	2.06	5.87	2.85	12	3.25 µM	18.1	3.28	12.8
COc1ccc(/C=C/C(=O)c2ccc(NC(=O)CSc3nnc(-c4cc(OC)c(OC)c(OC)c4)o3)cc2)cc1	1.88	3.65	1.78	3.56	0.32 µM	1.28	1.4	2.81	1.73	4.31	1.52	3.03 µM	2	3.85	–	–	2.13 µM	4.53	1.64	3.03
CC(=O)/C=C/c1ccc(N(C)Cc2ccc(C(C)(C)C)cc2)cc1	149	340	218	699	78.2 µM	208	133	277	53.9	237	348	890 µM	144	376	80.6	290	194 µM	550	161	316
CSc1ccc2c(c1)C(=O)c1c-2n(CCCN=[N+]=[N-])c(=O)c2cc([N+](=O)[O-])ccc12	1.57	66	1.18	> 100	1.22 µM	> 100	–	> 100	1.72	23.2	> 100	> 100 µM	0.322	> 100	1.69	> 100	0.623 µM	29	1.46	> 100
COc1ccc2cc(C(=O)/C=C/c3ccccc3OC)ccc2c1	5.92	13	4.37	> 51.4	0.863 µM	3.89	4.55	24.6	1.65	10.6	2.89	> 40.1 µM	–	> 51.7	1.4	6.5	7.51 µM	25.6	1.72	4.6
COc1ccc(-c2oncc2-c2cc(OC)c3c(c2)OCO3)cc1	6.36	> 100	5.25	> 100	4.01 µM	> 60.1	5.24	> 100	3.93	> 39.5	7.3	> 100 µM	3.58	> 100	3.28	> 58.3	3.91 µM	> 71.1	2	5.92
Cc1ccc(S(=O)(=O)N2C/C(=C\c3cc(F)cc(F)c3)C(=O)/C(=C/c3cc(F)cc(F)c3)C2)cc1	0.632	1.97	0.29	1.1	0.175 µM	0.339	0.286	0.709	0.0362	0.254	0.994	2.99 µM	0.742	2.91	0.162	0.513	1.5 µM	4.66	0.71	2.16
Cc1cc(Cl)ccc1Nc1nc(C(F)(F)F)ccc1C(=O)N/N=C/c1c(Cl)cccc1Cl	0.459	> 100	0.683	> 56.6	0.257 µM	> 100	0.194	0.675	0.194	–	0.316	1.79 µM	0.322	4.39	0.287	–	0.876 µM	> 27.2	0.638	4.07
CNC(=S)N/N=C(/C)CCC/C(C)=N/NC(=S)NC	–	–	–	> 100	–	44.2	–	> 100	–	> 100	–	> 100 µM	–	> 100	–	> 100	–	> 100	–	> 100
NNc1nc(-c2ccccn2)nc2sc3c(c12)CCCCCC3	8.31	> 100	–	–	6.17 µM	> 100	9.73	> 100	3.25	24.5	9.16	> 100 µM	4.22	57.5	3.53	> 100	8.57 µM	> 100	10.9	> 100
NS(=O)(=O)c1ccc(NCc2cnc3ccccc3c2)cc1	–	> 100	–	> 100	–	–	–	> 100	–	> 100	–	> 100 µM	–	> 100	–	> 100	–	> 100	–	> 100
COc1ccc2c(c1)N(CCC1CCCCN1C)c1ccccc1S2 (stereo not drawn)	–	–	–	28.9	–	25.9	–	30.4	–	29.5	–	28.1 µM	–	21.5	–	27.2	–	31.2	–	74.4

Source: PubChem BioAssay (NCI)
